“Also recorded” adds a separate entry of the source.

For one test, the system named is ICR mice. The test is described as follows: Acute hindpaw licking/flicking behavioral analysis. Conditions: for suppression of cinnamaldehyde-evoked licking/flicking behaviors: 10 mM cinnamaldehyde, 100 μM or 1 mM GdCl3, intradermal; for suppression of cinnamaldehyde-evoked licking/flicking behaviors / suppression of acetaldehyde-evoked licking/flicking behaviors: 10 mM camphor; for suppression of acetaldehyde-evoked licking/flicking behaviors: 100 mM acetaldehyde, 1 mM ruthenium red, 100 μM or 1 mM GdCl3 injected 5 min prior.

The test system of test [1] is trigeminal neurons. The test is described as follows: Whole-cell voltage-clamp recording of cultured trigeminal neurons. In kind it is cell-based, mouse. The settings on record: 1 mM acetaldehyde, co-application of 20 μM GdCl3 and 2 mM camphor. As to the method: Trigeminal ganglia were dissected out of decapitated adult ICR mice in cold PBS and treated with 1.5 mg/Ml of collagenase/dispase (Roche Diagnostics, USA) at 37 °C for 45 min, and then treated with 0.25% trypsin (Invitrogen, USA) for 15 min. The trigeminal neurons prepared thereby were then plated onto poly-L-lysine-coated coverslips in DMEM/F12 containing 10% FBS, 1% penicillin/streptomycin and 5 ng/Ml of 2.5S NGF (Invitrogen, USA), nerve growth factor (Invitrogen), followed by culture in a CO2 incubator for 48-72 hours.
Particularly, the extracellular solution (140 mM NaCl, 5 mM KCl, 2 mM CaCl2, 1 mM MgCl2, 10 mM HEPES; titrated to pH 7.4 with NaOH) and the pipette solution (140 mM CsCl, 5 mM EGTA, 10 mM HEPES, 2.0 mM MgATP, 0.2 mM NaGTP; titrated to pH 7.2 with CsOH) were used. The potential was holded at −60 mV for 250 ms, voltage-ramp pulsed from −80 mV to +80 mV for […] and returned to −60 mV for 250 ms, which was repeated without intersweep. This experiment was repeated 5 times.
The trigeminal neurons prepared by the same manner as described in Example 2 were delayed-treated with 1 mM acetaldehyde, followed by treatment of 20 μM GdCl3 (a TRPA1 blocker gadolinium; Sigma-Aldrich, USA) and 2 mM camphor. Then, whole-cell voltage-clamp recording was performed by the same manner as described in Example <5-2>.

In test [2] the test system is trigeminal neurons. Put plainly: Fluo-3 calcium imaging of cultured mouse trigeminal neurons. The settings on record: 1 μM PGE2 + modulator: SC-51089 10 μM, U73122 3 μM, U73343 3 μM, BIM 1 μM, chelerythrine 1 μM, H-89 10 μM.
The next test has as its target T1, hTRPA1 (Homo sapiens, UniProt O75762).
T1 construct: expressed in transfected cells; host or cells: HEK293T (ATCC CRL-11268), pcDNA3.1
Put plainly: Fluo-3 calcium imaging of hTRPA1-transfected HEK293T cells. Format: cell-based. Conditions: for elevation of intracellular calcium levels in hTRPA1-expressing cells: 1 mM acetaldehyde, 300 μM cinnamaldehyde, 10 mM acetic acid, 1% methanol, 1% ethanol; for suppression of acetaldehyde-evoked intracellular calcium influx (hTRPA1): 1 mM acetaldehyde + 2 mM camphor or 10 μM ruthenium red, n=12. The method, then: (§1) Particularly, the HEK293T cell line was transiently transfected with individual TRP channel plasmid (pcDNA3.1 containing polynucleotide encoding hTRPA1, rTRPV2, rTRPV1 or mTRPV4; pcDNA5/FRT containing polynucleotide encoding mTRPA1, hTRPV3 or mTRPM8) 3 μg per 35-mm dish and 600 ng/well of pcDNA3 (Invitrogen Corp., USA; containing green fluorescent protein (GFP) cDNA) using Fugene6 (Roche Diagnostics, USA) according to manufacturer's instruction. The transformed cells were cultured in DMEM/F12 containing 10% FBS and 1% penicillin/streptomycin in a CO2 incubator for 24 hours. The cells were replated onto poly-L-lysine-coated glass coverslips, followed by further culture for 10-24 hours.
(§2) Stock solutions were made using water or ethanol, and were diluted with test solutions before use.
(§3) Calcium imaging was performed with a confocal microscope (LSM5 Pascal, Carl Zeiss, Germany), and time-lapse images (488 nm excitation/514 nm emission) were collected every 3 seconds using Carl Zeiss ratio tool software (Carl Zeiss, Germany).
as §2
Background: A change in cytosolic calcium serves as a functional read-out for many receptors and channels.

The target in a further test is T2, mTRPA1 (Mus musculus, UniProt Q8BLA8).
T2 construct: expressed in transfected cells; host or cells: HEK293T (ATCC CRL-11268), pcDNA5/FRT
T2 sequence (Q8BLA8 whole entry): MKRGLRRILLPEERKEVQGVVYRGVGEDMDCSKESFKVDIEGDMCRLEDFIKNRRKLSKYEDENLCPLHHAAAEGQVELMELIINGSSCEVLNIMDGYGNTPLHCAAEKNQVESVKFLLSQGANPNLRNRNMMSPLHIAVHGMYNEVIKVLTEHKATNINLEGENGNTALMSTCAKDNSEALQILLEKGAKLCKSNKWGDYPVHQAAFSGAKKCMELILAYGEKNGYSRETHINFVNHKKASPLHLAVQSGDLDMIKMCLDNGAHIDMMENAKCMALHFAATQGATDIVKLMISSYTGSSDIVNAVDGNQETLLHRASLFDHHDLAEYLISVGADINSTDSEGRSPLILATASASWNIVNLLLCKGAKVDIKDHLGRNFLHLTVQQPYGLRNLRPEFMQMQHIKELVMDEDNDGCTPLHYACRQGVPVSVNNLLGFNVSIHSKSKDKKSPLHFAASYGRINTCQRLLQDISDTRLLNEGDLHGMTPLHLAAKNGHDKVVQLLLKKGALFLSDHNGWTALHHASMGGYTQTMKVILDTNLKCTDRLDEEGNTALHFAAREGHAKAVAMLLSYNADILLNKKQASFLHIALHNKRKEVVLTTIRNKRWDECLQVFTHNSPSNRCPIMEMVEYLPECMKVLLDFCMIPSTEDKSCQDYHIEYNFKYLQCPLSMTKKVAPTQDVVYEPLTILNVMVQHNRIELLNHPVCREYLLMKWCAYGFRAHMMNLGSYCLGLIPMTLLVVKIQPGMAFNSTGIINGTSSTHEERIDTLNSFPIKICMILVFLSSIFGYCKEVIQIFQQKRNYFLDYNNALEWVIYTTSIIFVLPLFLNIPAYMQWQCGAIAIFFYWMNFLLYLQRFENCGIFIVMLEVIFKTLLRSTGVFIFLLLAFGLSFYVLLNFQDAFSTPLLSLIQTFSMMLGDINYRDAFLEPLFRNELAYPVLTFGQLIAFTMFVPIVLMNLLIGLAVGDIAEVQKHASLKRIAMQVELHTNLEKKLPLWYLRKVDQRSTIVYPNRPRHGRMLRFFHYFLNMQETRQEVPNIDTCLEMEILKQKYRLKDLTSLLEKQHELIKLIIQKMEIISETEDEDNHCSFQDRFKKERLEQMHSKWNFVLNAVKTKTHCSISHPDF
Put plainly: Fluo-3 calcium imaging of mTRPA1-transfected HEK293T cells. The settings on record: 1 mM acetaldehyde + 2 mM camphor or 10 μM ruthenium red, n=21. In kind it is cell-based. The method, then:
as §1, §3, §2

For the next test, the system named is TRPA1. Put plainly: Whole-cell voltage-clamp recording of TRPA1 transfected cell line. In kind it is cell-based. As to the method: as §1, §2
This experiment was repeated 5 times.

T1 sequence (O75762 whole entry): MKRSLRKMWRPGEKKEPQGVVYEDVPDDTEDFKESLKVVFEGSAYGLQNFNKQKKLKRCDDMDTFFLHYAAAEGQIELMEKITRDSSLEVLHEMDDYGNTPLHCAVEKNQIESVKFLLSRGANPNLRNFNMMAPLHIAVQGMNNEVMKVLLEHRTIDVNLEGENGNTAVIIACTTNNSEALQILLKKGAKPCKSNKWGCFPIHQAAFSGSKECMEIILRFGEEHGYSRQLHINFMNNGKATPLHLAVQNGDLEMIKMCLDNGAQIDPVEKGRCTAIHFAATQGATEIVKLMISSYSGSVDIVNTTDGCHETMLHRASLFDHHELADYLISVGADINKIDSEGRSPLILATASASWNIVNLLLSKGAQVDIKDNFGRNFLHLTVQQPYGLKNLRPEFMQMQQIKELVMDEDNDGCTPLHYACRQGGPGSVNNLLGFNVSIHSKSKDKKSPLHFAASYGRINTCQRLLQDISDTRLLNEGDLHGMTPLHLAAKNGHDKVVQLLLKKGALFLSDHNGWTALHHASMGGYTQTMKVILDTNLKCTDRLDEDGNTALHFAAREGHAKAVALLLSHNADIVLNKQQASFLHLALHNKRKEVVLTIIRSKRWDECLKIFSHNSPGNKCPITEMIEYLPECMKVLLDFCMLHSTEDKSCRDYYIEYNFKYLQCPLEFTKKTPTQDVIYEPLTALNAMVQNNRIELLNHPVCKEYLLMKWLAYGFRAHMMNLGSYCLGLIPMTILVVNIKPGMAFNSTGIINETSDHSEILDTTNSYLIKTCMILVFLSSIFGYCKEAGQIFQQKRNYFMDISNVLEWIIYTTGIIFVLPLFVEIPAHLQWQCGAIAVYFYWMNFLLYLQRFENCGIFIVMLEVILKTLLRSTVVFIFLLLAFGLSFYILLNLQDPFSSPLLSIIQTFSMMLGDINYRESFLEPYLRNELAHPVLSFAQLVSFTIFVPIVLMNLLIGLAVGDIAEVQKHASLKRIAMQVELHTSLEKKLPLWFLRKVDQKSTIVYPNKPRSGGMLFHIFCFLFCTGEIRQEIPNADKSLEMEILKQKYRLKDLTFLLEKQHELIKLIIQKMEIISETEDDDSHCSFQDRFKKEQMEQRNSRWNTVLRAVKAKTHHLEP
Experimental for ICR mice: This analysis was performed in accordance with protocols approved by the University Committee on Laboratory Animals. Mice were acclimated for 1 h to the test environment prior to experiments. Drugs dissolved in vehicle (PBS containing 0.5% Tween 80) were injected into mice right hindpaws intradermally.

For `[Cl][Gd]([Cl])[Cl]` [GdCl3], in the test with ICR mice (100 μM GdCl3, intradermal), the “suppression of nociceptive behaviors at a micromolar dose” value was “significantly suppress”. Moreover, the “suppression of cinnamaldehyde-evoked licking/flicking behaviors” value in the test with ICR mice was “suppressed”. Besides, the “suppression of acetaldehyde-evoked licking/flicking behaviors” value in the test with ICR mice (intradermal) was “suppressed”. The “inhibition of acetaldehyde-evoked current in trigeminal neurons” value with trigeminal neurons [1] is recorded as “inhibited”.
Consider `O=S(=O)(NCCNC/C=C/c1ccc(Br)cc1)c1cccc2cnccc12` [H-89], for which the “suppression of the PGE2-induced potentiation of acetaldehyde responses” value (from here on “suppression … of acetaldehyde responses”) in the test with trigeminal neurons [2] is “did not suppress”.
Regarding `COc1ccc2c(c1)CC[C@@H]1[C@@H]2CC[C@]2(C)[C@@H](NCCCCCCN3C(=O)C=CC3=O)CC[C@@H]12` [U73122], the “suppression … of acetaldehyde responses” value with trigeminal neurons [2] is “significantly suppressed”.
For the compound `COc1ccc2c(c1)CC[C@@H]1[C@@H]2CC[C@]2(C)[C@@H](NCCCCCCN3C(=O)CCC3=O)CC[C@@H]12` [U73343], in the test on trigeminal neurons [2], the “suppression … of acetaldehyde responses” value is recorded as “did not suppress”.
Consider `CC(=O)O` [acetic acid], for which the “elevation of intracellular calcium levels in hTRPA1-expressing cells” value at hTRPA1 is listed as “failed to elevate intracellular calcium levels”.
Regarding `CC12CCC(CC1=O)C2(C)C` (stereo not drawn) [camphor], the “suppression of acetaldehyde-evoked intracellular calcium influx (hTRPA1)” value on hTRPA1 is listed as “completely suppressed”. In addition, the “suppression of acetaldehyde-evoked intracellular calcium influx (mTRPA1)” value on mTRPA1 is listed as “suppressed”. Besides, in the test with ICR mice, the “suppression of cinnamaldehyde-evoked licking/flicking behaviors” value is “suppressed”. Besides, the “duration of suppressive effect on PGE2-potentiated sensitization” value with ICR mice (100 mM acetaldehyde + 1 μM PGE2 + 10 mM camphor) worked out at 8 min. Also, the “suppression of the effect of co-injection of acetaldehyde and PGE2” value with ICR mice (100 mM acetaldehyde + 1 μM PGE2 + 10 mM camphor, intradermal) is “suppressed”. Also, in the test on ICR mice (intradermal), the “suppression of acetaldehyde-evoked licking/flicking behaviors” value is “suppressed”. The “inhibition of acetaldehyde-evoked current in TRPA1 expressing cells” value in the test with TRPA1 (1 mM acetaldehyde + 2 mM camphor) is given as “inhibited”. Moreover, the “inhibition of acetaldehyde-evoked current in trigeminal neurons” value in the test with trigeminal neurons [1] is reported as “inhibited”.
Consider `COc1ccc2c(c[n+](C)c3c4cc5c(cc4ccc23)OCO5)c1OC` [chelerythrine], for which, in the test with trigeminal neurons [2], the “suppression … of acetaldehyde responses” value is “significantly suppressed”.
`O=CC=Cc1ccccc1` [cinnamaldehyde]: the “elevation of intracellular calcium levels in hTRPA1-expressing cells” value at hTRPA1 is on record as “TRPA1-specific responses; also recorded: responded”. Also, in the test on ICR mice (intradermal into hindpaw, 10 μl, 100 mM acetaldehyde or 10 mM cinnamaldehyde, 10 min, n=5), the “acute hindpaw licking/flicking behavior elicited” value is given as “time spent in licking/flicking behaviors increased”. Also, the “whole-cell current response in TRPA1 expressing cells” value with TRPA1 (1 mM acetaldehyde, 300 μM cinnamaldehyde, voltage ramp -80 to +80 mV, n=5) was “responsive”.
For the compound `CCO` [ethanol], the “elevation of intracellular calcium levels in hTRPA1-expressing cells” value at hTRPA1 is “failed to elevate intracellular calcium levels”.
Same read-out and setting: for `CO` [methanol] the value was “failed to elevate intracellular calcium levels”.
Regarding `N.N.N.N.N.N.N.N.N.N.N.N.N.N.[Cl-].[Cl-].[Cl-].[Cl-].[Cl-].[Cl-].[O-2].[O-2].[Ru+3].[Ru+3].[Ru+4]` [ruthenium red], at hTRPA1, the “suppression of acetaldehyde-evoked intracellular calcium influx (hTRPA1)” value was “so did; also recorded: suppressed”. The “suppression of acetaldehyde-evoked intracellular calcium influx (mTRPA1)” value on mTRPA1 was “suppressed”. In the test on ICR mice (intradermal), the “suppression of acetaldehyde-evoked licking/flicking behaviors” value is “suppressed”.
For the compound SC-51089, in the test on trigeminal neurons [2], the “suppression … of acetaldehyde responses” value is given as “significantly suppressed”.
Take bisindolmaleimide [BIM]: the “suppression … of acetaldehyde responses” value in the test with trigeminal neurons [2] was “significantly suppressed”.
